Assay results reported in patent US20110212885A1, “OPHTHALMIC AND CONTACT LENS SOLUTIONS CONTAINING PEPTIDES AS PRESERVATIVE” (priority 2003, published 2011).
Where two headings read alike, the source gives them in different places. Non-standard residues stand in square brackets, D forms with d. Residues, ends and D or L forms follow the SMILES beside them. No end group written: not given here.

How the values were obtained:
Format in all cases: cell-based
[1] = test system: Pseudomonas aeruginosa (ATCC 9027); conditions: for lowest concentration giving complete kill of P. aeruginosa: Experiment 3, tested 100 to 1 ug/mL in water; for average cfu/mL: P. aeruginosa; for biocidal effect on P. aeruginosa (in words): 100 ug/mL in water
Description: (§1) Peptides were tested using a conventional Disinfection Efficacy antimicrobial assay (ISO 14729), commonly used in evaluating biocidal efficacy of preservatives for use in contact lens care solutions. Briefly, a known concentration of organisms are inoculated into the test solution, and allowed to incubate for a given amount of time, after which they are neutralized to inactivate the preservative. Samples are serially diluted and plated in duplicate onto petri plates onto which growth medium is poured. The plates are incubated at 35° C. (bacteria) or 25° C. (yeast and molds) for 48 hours. The average number of colony forming units is determined on countable plates (the dilution at which between 30 to 300 cfu/plate are observed, except when colonies are observed only on the −1 dilution plates). The log reduction resulting from exposure to the test solution is calculated based on the growth of positive controls plated simultaneously. Recovery controls, to confirm that the test solution is neutralized, and viability controls are also plated.
(§2) Method: The Disinfection Efficacy test was used with the following organisms: Staphylococcus aureus (ATCC 6538), Pseudomonas aeruginosa (ATCC 9027), Serratia marcesens (ATCC 13880), Candida albicans (ATCC 10231), and Fusarium solani (ATCC 36031). The peptides were diluted in water at a concentration of 100 ug/mL (adjusted for purity). Organism cultures were prepared to result in an inoculum concentration between 10^7 and 10^8 cfu/mL. The test solutions were inoculated for a 1 hour and a 3 hour exposure period, neutralized with DEB with 0.1% SLS added, and plated in duplicate.
(§3) Method: The Disinfection Efficacy test was used as in experiment 2 using Staphylococcus aureus and Pseudomonas aeruginosa. The peptides were diluted in water at concentrations of 100, 33.3, 10, 3.33, and 1 ug/mL. The test solutions were inoculated for 1 hour, neutralized, and plated in duplicate.

[2] = test system: Staphylococcus aureus (ATCC 6538); conditions: for concentration giving complete kill of S. aureus: tested 100 to 1 ug/mL in water; for average cfu/mL: S. aureus; for biocidal effect on S. aureus (in words): 100 ug/mL in water
Description: as §1, §2, §3

[3] = test system: Candida albicans (ATCC 10231); conditions: 1 hour exposure; for average cfu/mL: C. albicans, peptide 100 ug/mL in water; for biocidal effect on C. albicans (in words): 100 ug/mL in water
Description: as §1
Method: Candida albicans (ATCC 10231) stock cultures were incubated and prepared to result in cell suspensions containing between 10^7 and 10^8 cfu/mL. The Disinfection Efficacy test, as described above, was used, with the following modification: Since the standard Dey-Engley broth used to neutralize preservatives was not necessarily expected to neutralize the peptide, 0.1% sodium laurel sulfate (SLS) was added to the neutralization solution. Controls confirmed that this was effective in neutralizing the peptide test solution.
as §2

[4] = test system: Fusarium solani (ATCC 36031); conditions: 1 hour exposure; for average cfu/mL: F. solani, peptide 100 ug/mL in water; for biocidal effect on F. solani (in words): 100 ug/mL in water
Description: as §1, §2

[5] = test system: Serratia marcesens (ATCC 13880); conditions: 1 hour exposure; for average cfu/mL: S. marcescens, peptide 100 ug/mL in water; for biocidal effect on S. marcescens (in words): 100 ug/mL in water
Description: as §1, §2

[6] = T = 1 hr, Conc. 1 μg/mL in water
[7] = T = 1 hr, Conc. 3.33 μg/mL in water
[8] = T = 1 hr, Conc. 10 μg/mL in water
[9] = T = 1 hr, Conc. 33 μg/mL in water
[10] = T = 1 hr, Conc. 100 μg/mL in water
[11] = peptide 100 ug/mL in water, 1 hour exposure

Compound | lowest concentration giving complete kill of P. aeruginosa ([1]; 1 hour exposure) | average cfu/mL [1, 6] | average cfu/mL [1, 7] | average cfu/mL [1, 8] | average cfu/mL [1, 9] | average cfu/mL [1, 10] | average cfu/mL [1, 11] | concentration giving complete kill of S. aureus ([2]; Experiment 3, 1 hour exposure) | average cfu/mL [2, 6] | average cfu/mL [2, 7] | average cfu/mL [2, 8] | average cfu/mL [2, 9] | average cfu/mL [2, 10] | average cfu/mL [2, 11] | average cfu/mL [3] | average cfu/mL [4] | average cfu/mL [5] | biocidal effect on P. aeruginosa (in words) ([1]; 1 hour exposure) | biocidal effect on S. aureus (in words) ([2]; 1 hour exposure) | biocidal effect on C. albicans (in words) [3] | further results
FKLRAKIKVRLRAKIKL [D4E1] | 1 µg/mL | 1.00E+01 cfu/mL | 0.00E+00 cfu/mL | 0.00E+00 cfu/mL | 5.00E+00 cfu/mL | 0.00E+00 cfu/mL | 0.00E+00 cfu/mL | 1 µg/mL | 5.00E+00 cfu/mL | 0.00E+00 cfu/mL | 0.00E+00 cfu/mL | 0.00E+00 cfu/mL | 0.00E+00 cfu/mL | 0.00E+00 cfu/mL | 0.00E+00 cfu/mL | 0.00E+00 cfu/mL | 0.00E+00 cfu/mL | – | – | – | –
C[C@@H](N)C(=O)N[C@H](CCCCN)C(=O)N[C@H](CCCNC(=N)N)C(=O)N[C@H](Cc1c[nH]cn1)C(=O)N[C@H](Cc1c[nH]cn1)C(=O)NCC(=O)N[C@H](Cc1ccc(O)cc1)C(=O)N[C@H](CCCCN)C(=O)N[C@H](CCCNC(=N)N)C(=O)N[C@H](CCCCN)C(=O)N[C@H](Cc1ccccc1)C(=O)N[C@H](Cc1c[nH]cn1)C(N)=O [P113D] (H-[dA][dK][dR][dH][dH]G[dY][dK][dR][dK][dF][dH]-NH2; N-terminus and C-terminus assumed) | – | – | – | – | – | – | 2.00E+01 cfu/mL | – | – | – | – | – | – | 4.70E+05 cfu/mL | 3.30E+03 cfu/mL | 6.40E+03 cfu/mL | 2.80E+05 cfu/mL | effective | no effect | effective | biocidal effect on F. solani (in words) [4]: effective; biocidal effect on S. marcescens (in words) [5]: no effect
FAKKFAKKFKKFAKKFAKFAFAF [D2A21] | 1 µg/mL | 0.00E+00 cfu/mL | 0.00E+00 cfu/mL | 0.00E+00 cfu/mL | 0.00E+00 cfu/mL | 0.00E+00 cfu/mL | 0.00E+00 cfu/mL | 3.33 µg/mL | 1.12E+03 cfu/mL | 0.00E+00 cfu/mL | 1.00E+01 cfu/mL | 0.00E+00 cfu/mL | 0.00E+00 cfu/mL | 0.00E+00 cfu/mL | 0.00E+00 cfu/mL | 0.00E+00 cfu/mL | 0.00E+00 cfu/mL | – | – | – | –
AKRHHGYKRKFH-NH2 [P-113] | 3.33 µg/mL | 3.90E+02 cfu/mL | 5.00E+00 cfu/mL | 1.50E+01 cfu/mL | 0.00E+00 cfu/mL | 0.00E+00 cfu/mL | 6.00E+01 cfu/mL | – | 5.95E+04 cfu/mL | 1.44E+05 cfu/mL | 2.02E+05 cfu/mL | 3.40E+05 cfu/mL | 3.80E+05 cfu/mL | 6.10E+05 cfu/mL | 5.51E+03 cfu/mL | 6.00E+03 cfu/mL | 4.00E+05 cfu/mL | effective | no effect | effective | effectiveness against S. aureus (in words) ([2]; Experiment 3, 1 hour exposure, 100 to 1 ug/mL in water): not effective; biocidal effect on F. solani (in words) [4]: effective; biocidal effect on S. marcescens (in words) [5]: no effect
